Measurements as given in PMC7235764, “Novel Azoles as Antiparasitic Remedies against Brain-Eating Amoebae” (Antibiotics, 2020).

What was measured:
B. mandrillaris [1] = experiment: Amoebistatic assay (growth inhibition on HeLa feeder monolayers) against B. mandrillaris; format: cell-based, Balamuthia mandrillaris; details: 24 h; for amoebistatic activity, mean (M): 50 μM, M with SD; for inhibition at 50 µM: Balamuthia mandrillaris, HeLa, untreated amoebae considered as 0%
Protocol: (§1) N. fowleri cells (ATCC 30174) and B. mandrillaris cells (ATCC 50209) were acquired from American Type Culture Collection and cultivated in RPMI-1640 media supplemented with 1% antibiotics with HeLa cell monolayers used as a feeder layer at 37 °C and 5% CO2 as previously cultured. 5 × 10^5 amoebae cells were kept for 24 h at 37 °C and 5% CO2 with 50 μM azole compounds on HeLa monolayers as feeder cells. While positive controls used were amphotericin B and ketoconazole, RPMI-1640 alone was used as negative control and respective solvents were used as solvent control. Trypan blue exclusion assay which consists of using 0.1% trypan blue to distinguish between live (unstained) and dead (stained) cells and count the cells using a haemocytometer.

HaCaT cells = experiment: Cytotoxicity assay (LDH release) against human cells; format: cell-based; details: 50 μM, 24 h, 37 °C
Protocol: Figure 3 Cytotoxic effects of azoles against host cells. Briefly, 50 μM azoles were incubated with HaCaT cells monolayers for 24 h at 37 °C in a 5% CO2 incubator as described in Materials and Methods. […] The data are presented as the mean ± standard error. Cytotoxic effects of the drugs were determined as previously described. 50 μM azole compounds was incubated on HeLa cells for 24 h at 37 °C and 5% CO2 in RPMI-1640 media. The level of lactate dehydrogenase (LDH) enzyme in the RPMI-media which indicates cytotoxic effects of drugs was determined by means of a cytotoxicity detection kit (Roche Applied Science). The percentage cytotoxicity was calculated: [(Absorbance of sample - Absorbance of untreated cells)/(Absorbance for total LDH release - Absorbance of untreated cells)] × 100 = percentage cytotoxicity.

B. mandrillaris [2] = experiment: Amoebicidal assay (trypan blue exclusion) against B. mandrillaris; format: cell-based, Balamuthia mandrillaris; details: 50 μM, 24 h; for amoebicidal activity, mean (M): M with SD, azole alone (before conjugation); for percentage cell death (amoebicidal activity): negative control considered as 0%
Protocol: (§2) N. fowleri cells (ATCC 30174) and B. mandrillaris cells (ATCC 50209) were acquired from American Type Culture Collection and cultivated in RPMI-1640 media supplemented with 1% antibiotics with HeLa cell monolayers used as a feeder layer at 37 °C and 5% CO2 as previously cultured.
(§3) Amoebicidal assays were accomplished as formerly explained. Briefly, 5 × 10^5 amoebae cells were kept for 24 h at 37 °C and 5% CO2 with 50 μM azole compounds. While positive controls used were amphotericin B and ketoconazole, RPMI-1640 alone was used as negative control and respective solvents were used as solvent control. Trypan blue exclusion assay, which consists of using 0.1% trypan blue to differentiate between live (unstained) and dead (stained) cells and count the cells using a haemocytometer.

N. fowleri [3] = experiment: Amoebicidal assay (trypan blue exclusion) against N. fowleri; format: cell-based, Naegleria fowleri; details: 50 μM, 24 h; for amoebicidal activity, mean (M): M with SD, azole alone (before conjugation); for percentage cell death (amoebicidal activity): negative control considered as 0%
Protocol: as §2, §3

N. fowleri [4] = experiment: Amoebistatic assay (growth inhibition on HeLa feeder monolayers) against N. fowleri; format: cell-based, Naegleria fowleri; details: 24 h; for inhibition at 50 µM: Naegleria fowleri, HeLa, compared to untreated cells; for amoebistatic activity, mean (M): 50 μM, M with SD
Protocol: as §1

SMILES | amoebistatic activity, mean (M) (B. mandrillaris [1]) | inhibition at 50 µM (B. mandrillaris [1]) | cytotoxicity (HaCaT cells) | amoebicidal activity, mean (M) (B. mandrillaris [2]) | percentage cell death (amoebicidal activity) (B. mandrillaris [2]) | amoebicidal activity, mean (M) (N. fowleri [3]) | percentage cell death (amoebicidal activity) (N. fowleri [3]) | inhibition at 50 µM (N. fowleri [4]) | amoebistatic activity, mean (M) (N. fowleri [4])
COc1cc(-c2nc3ccccc3[nH]2)cc(Br)c1OC [A1, 2-[3-Bromo-4,5-bis(methoxy)phenyl]-1H-benzimidazole] | 52.63% | 53% | 41% | 35.62% | 36% | 0% | did not cause amoebicidal activity | 20% | 
Cc1ccc(-c2nc3ccccc3[nH]2)o1 [A2] | 70.33% | 70% | no cytotoxic activities |  | limited amoebicidal activity |  | 31% | 64% | 64.31%
CC1(C)C/C(=N\NC(=S)Nc2ccccc2Cl)c2cnn(-c3ccccc3)c2C1 [A3, (E)-N-(2-Chlorophenyl)-2-(6,6-dimethyl-1-phenyl-1,5,6,7-tetrahydro-4H-indazol-4-4ylidene)hydrazine-1-carbothioamide] | 55.62% | 56% | 19% | 23.86% | 24% |  | 39% | 75% | 75.12%
CC1(C)C/C(=N\NC(N)=S)c2cnn(-c3ccccc3)c2C1 [A4, (E)-2-(6,6-Dimethyl-1-phenyl-1,5,6,7-tetrahydro-4H-indazol-4-4ylidene)hydrazine-1-carbothioamide] | 64.98% | 65% | 5% | 1.65% | limited amoebicidal activity | 72.34% | 72% | 55% | 54.70%
Clc1cccc(Cc2nnn[nH]2)c1 [A5, 5-(3-Chlorobenzyl)-1H-tetrazole] | 51.24% | 51% | 11% | 64.54% | 65% | 66.19% | 66% | 63% | 62.74%
c1ccc(-c2nnn[nH]2)cc1 [A6, 5-Phenyl-1H-tetrazole] | 70.35% | 70% | no cytotoxic activities | 30.58% | 31% |  | 45% | 67% | 66.53%
